The assay concerns the target T1, glucagon receptor (Homo sapiens, UniProt P47871).
T1 construct: expressed in transfected cells
Description: Assay (I) Glucagon activity (cAMP biosensor, FLIPR). The class given is cell-based. The conditions noted are these: HEK-293 cells with cloned glucagon receptor and cAMP biosensor; end point after 6 minutes. A digest of the protocol: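 HEK-293 cells expressing glucagon receptor with membrane cAMP biosensor (ACTOne), calcium-dye loaded with probenecid and a PDE inhibitor.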

*1 amine or outer side, *2 acyl side, *3 side chain or, on linkers, in order; H or OH if unused. Where a SMILES comes first, the peptide text is derived from it. Side-chain parts run from the residue outwards. γGlu = O=C(O)[C@H](CCC(=O)[*:2])N[*:1]

Usually EC50 stands for the concentration needed to bring the measured effect to its halfway point. Lower therefore signals an effect from little substance.

T1 sequence (P47871 26-477): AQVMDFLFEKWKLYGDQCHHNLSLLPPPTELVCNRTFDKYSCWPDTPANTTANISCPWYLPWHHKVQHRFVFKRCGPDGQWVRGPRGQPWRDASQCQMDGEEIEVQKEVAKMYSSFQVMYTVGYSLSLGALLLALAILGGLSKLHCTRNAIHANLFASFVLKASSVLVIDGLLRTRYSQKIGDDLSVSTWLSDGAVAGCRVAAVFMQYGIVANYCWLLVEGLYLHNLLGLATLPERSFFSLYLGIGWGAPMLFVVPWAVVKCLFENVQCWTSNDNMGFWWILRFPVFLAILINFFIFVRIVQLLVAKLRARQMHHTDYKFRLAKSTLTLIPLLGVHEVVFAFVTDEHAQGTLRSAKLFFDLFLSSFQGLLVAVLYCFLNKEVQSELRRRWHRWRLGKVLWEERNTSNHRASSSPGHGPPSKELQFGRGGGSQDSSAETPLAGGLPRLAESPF

With `CC(=O)N[C@@H](CCC(=O)N[C@@H](CCC(=O)N[C@@H](CCC(=O)N[C@@H](CCC(=O)NCCCC[C@H](NC(=O)[C@@H](NC(=O)[C@H](Cc1ccccc1)NC(=O)[C@H](CC(=O)O)NC(=O)[C@H](C)NC(=O)[C@H](C)NC(=O)[C@H](CCCNC(=N)N)NC(=O)[C@H](CCCNC(=N)N)NC(=O)[C@H](Cc1ccccc1)NC(=O)[C@H](CC(=O)O)NC(=O)[C@H](CC(C)C)NC(=O)[C@H](Cc1ccc(O)cc1)NC(=O)[C@H](CCCCN)NC(=O)[C@H](CO)NC(=O)[C@H](Cc1ccc(O)cc1)NC(=O)[C@H](CC(=O)O)NC(=O)[C@H](CO)NC(=O)[C@@H](NC(=O)[C@H](Cc1ccccc1)NC(=O)[C@@H](NC(=O)CNC(=O)[C@H](Cc1c[nH]cn1)NC(=O)[C@H](CO)NC(=O)[C@@H](N)Cc1c[nH]cn1)[C@@H](C)O)[C@@H](C)O)C(C)C)C(=O)N[C@@H](Cc1c[nH]c2ccccc12)C(=O)N[C@@H](CC(C)C)C(=O)N[C@@H](CC(C)C)C(=O)N[C@@H](CO)C(=O)N[C@H](C(=O)O)[C@@H](C)O)C(=O)O)C(=O)O)C(=O)O)C(=O)O` [Example 12, N^ε24-[(4S)-4-[[(4S)-4-[[(4S)-4-[[(4S)-4-acetamido-4-carboxybutanoyl]amino]-4-carboxybutanoyl]amino]-4-carboxybutanoyl]amino]-4-carboxybutanoyl]-[His3,Phe16,Ala20,Lys24,Leu27,Ser28]-Glucagon] (H-HSHGTFTSDYSKYLDFRRAADFVK([γGlu-γGlu-γGlu-γGlu-Ac])WLLST-OH), a half-maximal effect (EC50) was put at 10.3 pM.

Turning to `CC(=O)N[C@@H](CCC(=O)N[C@@H](CCC(=O)N[C@@H](CCC(=O)N[C@@H](CCC(=O)NCCCC[C@H](NC(=O)[C@@H](NC(=O)[C@H](CO)NC(=O)[C@H](CC(C)C)NC(=O)[C@H](CC(C)C)NC(=O)[C@H](Cc1c[nH]c2ccccc12)NC(=O)[C@H](CCC(N)=O)NC(=O)[C@@H](NC(=O)[C@H](Cc1ccccc1)NC(=O)[C@H](CC(=O)O)NC(=O)[C@H](CCC(N)=O)NC(=O)[C@H](C)NC(=O)[C@H](CCCNC(=N)N)NC(=O)[C@H](CCCNC(=N)N)NC(=O)[C@H](CO)NC(=O)[C@H](CC(=O)O)NC(=O)[C@H](CC(C)C)NC(=O)[C@H](Cc1ccc(O)cc1)NC(=O)[C@H](CCCCN)NC(=O)[C@H](CO)NC(=O)[C@H](Cc1ccc(O)cc1)NC(=O)[C@H](CC(=O)O)NC(=O)[C@H](CO)NC(=O)[C@@H](NC(=O)[C@H](Cc1ccccc1)NC(=O)[C@@H](NC(=O)CNC(=O)[C@H](CCC(N)=O)NC(=O)[C@H](CO)NC(=O)[C@@H](N)Cc1c[nH]cn1)[C@@H](C)O)[C@@H](C)O)C(C)C)[C@@H](C)O)C(=O)O)C(=O)O)C(=O)O)C(=O)O)C(=O)O` [Example 51, N^α([Leu^27,Ser^28]-Glucagonyl)-N^ε[(4S)-4-[[(4S)-4-[[(4S)-4-[[(4S)-4-acetamido-4-carboxybutanoyl]amino]-4-carboxybutanoyl]amino]-4-carboxybutanoyl]amino]-4-carboxybutanoyl]Lys], the EC50 came to 7 pM. The EC50 values of the last two compounds are within 1.5-fold of each other.

Take `CC(=O)N[C@@H](CCC(=O)N[C@@H](CCC(=O)N[C@@H](CCC(=O)N[C@@H](CCC(=O)NCCCC[C@H](NC(=O)[C@@H](NC(=O)[C@H](Cc1ccccc1)NC(=O)[C@H](CC(=O)O)NC(=O)[C@H](CCC(N)=O)NC(=O)[C@H](C)NC(=O)[C@H](CCCNC(=N)N)NC(=O)[C@H](CCCNC(=N)N)NC(=O)[C@H](Cc1c[nH]c2ccccc12)NC(=O)[C@H](CC(=O)O)NC(=O)[C@H](CC(C)C)NC(=O)[C@H](Cc1ccc(O)cc1)NC(=O)[C@H](CCCCN)NC(=O)[C@H](CO)NC(=O)[C@H](Cc1ccc(O)cc1)NC(=O)[C@H](CC(=O)O)NC(=O)[C@H](CO)NC(=O)[C@@H](NC(=O)[C@H](Cc1ccccc1)NC(=O)[C@@H](NC(=O)CNC(=O)[C@H](CCC(N)=O)NC(=O)[C@H](CO)NC(=O)[C@@H](N)Cc1c[nH]cn1)[C@@H](C)O)[C@@H](C)O)C(C)C)C(=O)N[C@@H](Cc1c[nH]c2ccccc12)C(=O)N[C@@H](CC(C)C)C(=O)N[C@@H](CC(C)C)C(=O)N[C@@H](CO)C(=O)N[C@H](C(=O)O)[C@@H](C)O)C(=O)O)C(=O)O)C(=O)O)C(=O)O` [Example 34]: the response was half-maximal at 2.3 pM (EC50).

In the case of `CC(=O)N[C@@H](CCC(=O)N[C@@H](CCC(=O)N[C@@H](CCC(=O)N[C@@H](CCC(=O)NCCCC[C@H](NC(=O)[C@@H](NC(=O)[C@H](Cc1ccccc1)NC(=O)[C@H](CC(=O)O)NC(=O)[C@H](CCC(N)=O)NC(=O)[C@H](C)NC(=O)[C@H](CCCNC(=N)N)NC(=O)[C@H](CCCNC(=N)N)NC(=O)[C@H](CC(C)C)NC(=O)[C@H](CC(=O)O)NC(=O)[C@H](CC(C)C)NC(=O)[C@H](Cc1ccc(O)cc1)NC(=O)[C@H](CCCCN)NC(=O)[C@H](CO)NC(=O)[C@H](Cc1ccc(O)cc1)NC(=O)[C@H](CC(=O)O)NC(=O)[C@H](CO)NC(=O)[C@@H](NC(=O)[C@H](Cc1ccccc1)NC(=O)[C@@H](NC(=O)CNC(=O)[C@H](CCC(N)=O)NC(=O)[C@H](CO)NC(=O)[C@@H](N)Cc1c[nH]cn1)[C@@H](C)O)[C@@H](C)O)C(C)C)C(=O)N[C@@H](Cc1c[nH]c2ccccc12)C(=O)N[C@@H](CC(C)C)C(=O)N[C@@H](CC(C)C)C(=O)N[C@@H](CO)C(=O)N[C@H](C(=O)O)[C@@H](C)O)C(=O)O)C(=O)O)C(=O)O)C(=O)O` [Example 38, N^ε24-[(4S)-4-[[(4S)-4-[[(4S)-4-[[(4S)-4-acetamido-4-carboxybutanoyl]amino]-4-carboxybutanoyl]amino]-4-carboxybutanoyl]amino]-4-carboxybutanoyl]-[Leu16,Lys24,Leu27,Ser28]-Glucagon], the EC50 came to 2.9 pM.

For `CC(=O)N[C@@H](CCC(=O)N[C@@H](CCC(=O)N[C@@H](CCC(=O)N[C@@H](CCC(=O)NCCCC[C@H](NC(=O)[C@@H](NC(=O)[C@H](Cc1ccccc1)NC(=O)[C@H](CC(=O)O)NC(=O)[C@H](CCC(=O)O)NC(=O)[C@H](C)NC(=O)[C@H](CCCNC(=N)N)NC(=O)[C@H](CCCNC(=N)N)NC(=O)[C@H](CC(C)C)NC(=O)[C@H](CC(=O)O)NC(=O)[C@H](CC(C)C)NC(=O)[C@H](Cc1ccc(O)cc1)NC(=O)[C@H](CCCNC(=N)N)NC(=O)[C@H](CO)NC(=O)[C@H](Cc1ccc(O)cc1)NC(=O)[C@H](CC(=O)O)NC(=O)[C@H](CO)NC(=O)[C@@H](NC(=O)[C@H](Cc1ccccc1)NC(=O)[C@@H](NC(=O)CNC(=O)[C@H](CCC(N)=O)NC(=O)[C@H](CO)NC(=O)[C@@H](N)Cc1c[nH]cn1)[C@@H](C)O)[C@@H](C)O)C(C)C)C(=O)N[C@@H](Cc1c[nH]c2ccccc12)C(=O)N[C@@H](CC(C)C)C(=O)N[C@@H](CC(C)C)C(=O)N[C@@H](CO)C(=O)N[C@H](C(=O)O)[C@@H](C)O)C(=O)O)C(=O)O)C(=O)O)C(=O)O` [Example 57, N^ε24-[(4S)-4-[[(4S)-4-[[(4S)-4-[[(4S)-4-acetamido-4-carboxybutanoyl]amino]-4-carboxybutanoyl]amino]-4-carboxybutanoyl]amino]-4-carboxybutanoyl]-[Arg^12,Leu^16,Glu^20,Lys^24,Leu^27,Ser^28]-Glucagon] (H-HSQGTFTSDYSRYLDLRRAEDFVK([γGlu-γGlu-γGlu-γGlu-Ac])WLLST-OH), the EC50 came to 17 pM.

For `CC(=O)N[C@@H](CCC(=O)N[C@@H](CCC(=O)N[C@@H](CCC(=O)N[C@@H](CCC(=O)NCCCC[C@H](NC(=O)[C@@H](NC(=O)[C@H](Cc1ccccc1)NC(=O)[C@H](CCC(=O)O)NC(=O)[C@H](C)NC(=O)[C@H](C)NC(=O)[C@H](CCCNC(=N)N)NC(=O)[C@H](CCCNC(=N)N)NC(=O)[C@@H](NC(=O)[C@H](CC(=O)O)NC(=O)[C@H](CC(C)C)NC(=O)[C@H](Cc1ccc(O)cc1)NC(=O)[C@H](CCCCN)NC(=O)[C@H](CO)NC(=O)[C@H](Cc1ccc(O)cc1)NC(=O)[C@H](CC(=O)O)NC(=O)[C@H](CO)NC(=O)[C@@H](NC(=O)[C@H](Cc1ccccc1)NC(=O)[C@@H](NC(=O)CNC(=O)[C@H](Cc1c[nH]cn1)NC(=O)[C@H](C)NC(=O)[C@@H](N)Cc1c[nH]cn1)[C@@H](C)O)[C@@H](C)O)C(C)C)C(C)C)C(=O)N[C@@H](Cc1c[nH]c2ccccc12)C(=O)N[C@@H](CC(C)C)C(=O)N[C@@H](CC(C)C)C(=O)N[C@@H](CO)C(=O)N[C@H](C(=O)O)[C@@H](C)O)C(=O)O)C(=O)O)C(=O)O)C(=O)O` [Example 47, N^ε24-[(4S)-4-[[(4S)-4-[[(4S)-4-[[(4S)-4-acetamido-4-carboxybutanoyl]amino]-4-carboxybutanoyl]amino]-4-carboxybutanoyl]amino]-4-carboxybutanoyl]-[Ala^2,His^3,Val^16,Ala^20,Glu^21,Lys^24,Leu^27,Ser^28]-Glucagon] (H-HAHGTFTSDYSKYLDVRRAAEFVK([γGlu-γGlu-γGlu-γGlu-Ac])WLLST-OH), the response was half-maximal at 9 pM (EC50).

The compound `CC(=O)N[C@@H](CCC(=O)N[C@@H](CCC(=O)N[C@@H](CCC(=O)N[C@@H](CCC(=O)NCCCC[C@H](NC(=O)[C@@H](NC(=O)[C@H](Cc1ccccc1)NC(=O)[C@H](CCC(=O)O)NC(=O)[C@H](C)NC(=O)[C@H](C)NC(=O)[C@H](CCCNC(=N)N)NC(=O)[C@H](CCCNC(=N)N)NC(=O)[C@@H](NC(=O)[C@H](CC(=O)O)NC(=O)[C@H](CC(C)C)NC(=O)[C@H](Cc1ccc(O)cc1)NC(=O)[C@H](CCCCN)NC(=O)[C@H](CO)NC(=O)[C@H](Cc1ccc(O)cc1)NC(=O)[C@H](CC(=O)O)NC(=O)[C@H](CO)NC(=O)[C@@H](NC(=O)[C@H](Cc1ccccc1)NC(=O)[C@@H](NC(=O)CNC(=O)[C@H](Cc1c[nH]cn1)NC(=O)CNC(=O)[C@@H](N)Cc1c[nH]cn1)[C@@H](C)O)[C@@H](C)O)C(C)C)C(C)C)C(=O)N[C@@H](Cc1c[nH]c2ccccc12)C(=O)N[C@@H](CC(C)C)C(=O)N[C@@H](CC(C)C)C(=O)N[C@@H](CO)C(=O)N[C@H](C(=O)O)[C@@H](C)O)C(=O)O)C(=O)O)C(=O)O)C(=O)O` [Example 46, N^ε24-[(4S)-4-[[(4S)-4-[[(4S)-4-[[(4S)-4-acetamido-4-carboxybutanoyl]amino]-4-carboxybutanoyl]amino]-4-carboxybutanoyl]amino]-4-carboxybutanoyl]-[Gly^2,His^3,Val^16,Ala^2°,Glu^21,Lys^24,Leu^27,Ser^28]-Glucagon] (H-HGHGTFTSDYSKYLDVRRAAEFVK([γGlu-γGlu-γGlu-γGlu-Ac])WLLST-OH) showed a 50% effective concentration (EC50) of 24 pM.
